# System: striatum of Parkinson's disease (PD) model (6-OHDA) mice
# Experiment: FSCV/SDBR measurement of tonic dopamine concentration in the striatum after levodopa infusion
# Type: in vivo
# Conditions: FSCV with SDBR, levodopa injected after about 15 minutes flat signal, increases for about 25 minutes, then re-saturates
# Text: FIGS. 8A and 8B illustrate results of measuring a neurotransmitter concentration in an in vivo experiment using the neurotransmitter concentration measuring apparatus according to an embodiment of the present disclosure. FIGS. 8A and 8B illustrate examples for confirming SDBR-based tonic dopamine measurement results, which can be confirmed through long-term measurement using standard FSCV data, through in vivo experiments by a neurotransmitter concentration measuring apparatus according to an embodiment of the present disclosure. The graphs 810 to 813 are shown to compare the results measured in the striatum of mice after levodopa infusion. To confirm the practicality of SDBR in the in vivo environment, FSCV results after levodopa infusion of the striatum of healthy mice and the striatum of Parkinson's disease (PD) model (6-OHDA) mice are shown in FIGS. 8A and 8B. Meanwhile, the graphs 810 to 813 of FIG. 8B show the results measured by FSCV in the striatum 15 minutes after levodopa was directly injected into the experimental mice, and the graphs 810 and 811 indicate that the amplitude of the dopamine peak consistently increases independent of drug infusion due to the background subtraction technique.
structure (smiles),measurement,value
N[C@@H](Cc1ccc(O)c(O)c1)C(=O)O [levodopa],estimated dopamine concentration after levodopa infusion (SDBR),72.4 nM
